In PMC7073229, “Novel Quinoline Compounds Active in Cancer Cells through Coupled DNA Methyltransferase Inhibition and Degradation” (Cancers, 2020):

Tests used:
[1] = tested on: HCT116 human colorectal carcinoma; assay: Antiproliferative activity, MTT; format: cell-based; conditions: HCT-116, 48 h treatment, read-out: Antiproliferative Activity (IC50 ± SD) HCT116
Description: (§1) U937 histiocytic lymphoma, HL60 acute promyelocytic leukemia, H1299 lung adenocarcinoma, MCF7 breast carcinoma, HT1080 fibrosarcoma, M14 melanoma, HeLa epithelial cervix carcinoma and peripheral blood B lymphocyte AHH1 human cell lines were obtained from the Deutsche Sammlung für Mikroorganismen and Zellkulturen (DSZM, Braunschweig, Germany) and were maintained in RPMI 1640 medium contained 10% fetal bovine serum (FBS), 2 mM L-glutamine, and antibiotics in a humidified atmosphere with 5% CO2 at 37 °C. HCT116 (ATCC, VA, USA) cells were propagated in Dulbecco’s modified Eagle medium (DMEM) (Euroclone, Milan, Italy) with 10% fetal bovine serum (FBS; Euroclone, Milan, Italy), 2 mM L-glutamine (Euroclone, Milan, Italy), and antibiotics (100 U/mL penicillin, 100 µg/mL streptomycin) (Euroclone, Milan, Italy). The experiments were performed with early (3–20) cell passages. Cell lines were treated with compounds at the indicated concentrations in the exponential growth phase.
(§2) Then, increasing concentrations of different compounds (ranging from 0.01 to 100 μM) were added, and cell proliferation was evaluated by a MTT assay after 48 h. Cells exposed to DMSO were used as control. The effect of compounds was evaluated using the CellTiter-Glo luminescent cell viability assay (Promega, Madison, WI, USA) according to the manufacturer’s instructions. For HCT116, 5 × 10^4 cells/well were plated in 24-well plate and treated, in duplicate, with compounds at several concentrations for 24 and 48 h of induction. After treatments, MTT solution was added for 3 h at 0.5 mg/mL, the obtained crystals were dissolved in DMSO (Sigma-Aldrich, Milan, Italy), and the absorbance was read at a wavelength of 570 nm with reader TECAN M-200. All the experiments were performed in triplicate and repeated at least three times.
(§3) IC50 values of compounds against cellular viability were determined by using nonlinear regression fitting curves with GraphPad Prism 8. The t-test used for statistical analyses was performed with GraphPad Prism 8. All the tests were one-tailed and a p-value < 0.05 was considered statistically significant.

[2] = tested on: HT1080 human fibrosarcoma; assay: Antiproliferative activity, MTT; format: cell-based; conditions: HT-1080, 48 h treatment, read-out: Antiproliferative Activity (IC50 ± SD) HT1080
Description: as §1, §2, §3

[3] = tested on: HeLa epithelial cervix carcinoma; assay: Antiproliferative activity, MTT; format: cell-based; conditions: Homo sapiens, 48 h treatment, read-out: Antiproliferative Activity (IC50 ± SD) HeLa
Description: as §1, §2, §3

F21T G-quadruplex DNA = assay: FRET melting assay, G-quadruplex DNA; format: binding
Description: (§4) Experimental procedure for Fluorescence Resonance Energy Transfer (FRET) melting assay Oligonucleotides labeled at 5’ with FAM (6-carboxyfluorescein) as donor fluorophore and TAMRA (6 - carboxytetramethylrhodamine) at 3’ as the acceptor fluorophore were purchased from STAB VIDA (Portugal). Each oligonucleotide was initial ly diluted to 100 µM in water (Molecular Biology Reagent, Sigma). Stock solutions of 20 µM and subsequent dilutions were made with FRET buffer (60 mM KCl, potassium cacodylate, pH 7.4). Tagged oligonucleotides at 0.4 µM were annealed by heating at 90 -95 °C for 10 min, followed by slow cooling to room temperature. St ock solutions of compounds (1 mM) were prepared in 10% DMSO. Subsequent dilutions were performed using FRET buffer. Annealed DNA (50 µL) and test compound solutions (50 µL) were distributed across 96-well RT-PCR plates (PCR-96-FLT-C, Axygen, Inc). Fluorescence readings (performed in a 7300 RT -PCR equipment from Applied Biosystems) were taken at intervals of 0.5 °C in the range 31 –95 °C, with the temperature being maintained for 30 seconds prior to each reading. Experiments were performed in triplicate. Fina l analysis of the data was carried out with GraphPad Prism v.5.0 (GraphPad Software Inc., La Jolla, CA, USA).
(§5) The advanced curve-fitting function in GraphPad Prism (nonlinear regression fit) was used for calculation of ΔTm values. Only results with fitting r2 values > 0.75 (std error < 0.25) were considered.
(§6) Table S2. Synthetic oligonucleotides used in FRET experiments.

KRAS21R G-quadruplex DNA = assay: FRET melting assay, G-quadruplex DNA; format: binding
Description: as §4, §5, §6

[4] = tested on: luciferase reporter under methylated CMV promoter in KG-1 leukemia cells; assay: CMV-luc assay in KG-1 cells; format: cell-based; conditions: KG-1 CMV-luc, vs DMSO
Description: The assay was carried out as described by Rilova et al.. The KG-1 cell line was stably transfected with the luciferase firefly (Luc^+ from pGL3 by Promega, Madison, WI, USA) reporter gene under the control of a methylated CMV promoter (from pEGFP-N1 by Clontech) and selected for the maintenance of the methylation of CMV and luciferase expression silencing (KG-1 CMV-luc). The stably integrated KG-1 CMV-luc cells are cultivated in RPMI-1640 medium (Lonza, Strasbourg, France), supplemented with 10% FCS (Lonza, Strasbourg, France) and 0.5 mg/mL of geneticin (Sigma-Aldrich, Saint-Quentin Fallavier, France), under 5% CO2, at 37 °C and seeded at 20,000 cells per well in 96-well plates. After 5 or 24 h of incubation in the presence of compounds or the solvent DMSO, the induction of the promoter is measured by quantification of luciferase with the Brite-lite assay system (PerkinElmer, Villebon-sur-Yvette, France) according to the manufacturer’s protocol. The luminescence is measured on an EnVision Multilabel Plate Reader (PerkinElmer, Villebon-sur-Yvette, France), and the data are expressed as fold induction compared to DMSO control. The mean of 2–4 experiments and its standard error are reported.

U937 cells = assay: Sub-G1 peak, cell cycle flow cytometry; format: cell-based, human; conditions: U937, 1 µM; for effect on sub-G1 peaks vs untreated cells: 24 and 48 h
Description: Cell cycle analysis was performed on 5 × 10^5 fixed cells resuspended in a RNase A (3 mg/mL) and propidium iodide (PI) solution (1 mg/mL). Samples were analyzed with a C6 Accuri BD (Becton Dickinson & Co., San Jose, CA, USA). The percentage of apoptosis was measured analyzing sub-G1 peaks. Apoptotic cell death was also evaluated by using annexin V–fluorescein isothiocyanate (FITC) apoptosis kit (BD Bioscience) and assayed according to the manufacturer’s instructions. Cells double-stained for both annexin V and PI were analyzed by flow cytometry. PI was used in conjunction with annexin V–FITC to distinguish cells in the earlier stages of apoptosis (annexin V-FITC positive, PI negative) from those in later stages of apoptosis or that were already dead (annexin V–FITC positive, PI positive). Percentage of cells positive for caspase-3 activation was evaluated by Active Caspase-3 Apoptosis Kit (BD biosciences, Milan, Italy) according to the manufacturer’s instructions.

O=C(Nc1cccc(Nc2ccnc3ccccc23)c1)c1ccc(Nc2ccnc3ccccc23)cc1 [Compound 2c]
IC50 [1]: 2300 ± 500 nM
IC50 [2]: 2600 ± 600 nM
IC50 [3]: 4200 ± 800 nM
F21T ∆Tm (F21T G-quadruplex DNA; 5 µM): 1 ºC
F21T ∆Tm (F21T G-quadruplex DNA; 10 µM): 1.2 ºC
KRAS ∆Tm (KRAS21R G-quadruplex DNA; 5 µM): 0 ºC
KRAS ∆Tm (KRAS21R G-quadruplex DNA; 10 µM): 3.4 ºC

O=C(Nc1cccc(NC(=O)c2ccc(Nc3ccnc4ccccc34)cc2)c1)OCc1ccccc1 [Compound 4c]
Luciferase Expression (Fold ± SD) ([4]; 0.5 µM): 0.96 ± 0.01 fold
Luciferase Expression (Fold ± SD) ([4]; 1 µM): 0.87 ± 0.05 fold
Luciferase Expression (Fold ± SD) ([4]; 5 µM): 40.40 ± 12.75 fold
Luciferase Expression (Fold ± SD) ([4]; 10 µM): 28.51 ± 3.39 fold
Luciferase Expression (Fold ± SD) ([4]; 25 µM): 8.07 ± 1.96 fold
effect on sub-G1 peaks vs untreated cells (U937 cells): no
IC50 [1]: 17700 ± 2400 nM
IC50 [2]: 3900 ± 800 nM
IC50 [3]: 7400 ± 1200 nM
F21T ∆Tm (F21T G-quadruplex DNA; 5 µM): 0.8 ºC
F21T ∆Tm (F21T G-quadruplex DNA; 10 µM): 1.5 ºC
KRAS ∆Tm (KRAS21R G-quadruplex DNA; 5 µM): 1.0 ºC
KRAS ∆Tm (KRAS21R G-quadruplex DNA; 10 µM): 2.6 ºC

O=C(Nc1ccc(NC(=O)c2cccc(Nc3ccnc4ccccc34)c2)cc1)OCc1ccccc1 [Compound 4a]
Luciferase Expression (Fold ± SD) ([4]; 0.5 µM): 1.05 ± 0.12 fold
Luciferase Expression (Fold ± SD) ([4]; 1 µM): 1.02 ± 0.07 fold
Luciferase Expression (Fold ± SD) ([4]; 5 µM): 1.04 ± 0.16 fold
Luciferase Expression (Fold ± SD) ([4]; 10 µM): 1.45 ± 0.39 fold
Luciferase Expression (Fold ± SD) ([4]; 25 µM): 1.60 ± 1.00 fold
effect on sub-G1 peaks vs untreated cells (U937 cells): very low
IC50 [1]: 23900 ± 2600 nM
IC50 [2]: 19500 ± 2800 nM
IC50 [3]: 77000 ± 7900 nM
F21T ∆Tm (F21T G-quadruplex DNA; 5 µM): 0 ºC
F21T ∆Tm (F21T G-quadruplex DNA; 10 µM): 4.3 ºC
KRAS ∆Tm (KRAS21R G-quadruplex DNA; 5 µM): 2.5 ºC
KRAS ∆Tm (KRAS21R G-quadruplex DNA; 10 µM): 4.6 ºC

O=C(Nc1cccc(Nc2ccnc3ccccc23)c1)c1cccc(Nc2ccnc3ccccc23)c1 [Compound 2b]
IC50 [1]: 1500 ± 300 nM
IC50 [2]: 2700 ± 400 nM
IC50 [3]: 2000 ± 300 nM
F21T ∆Tm (F21T G-quadruplex DNA; 5 µM): 2.8 ºC
F21T ∆Tm (F21T G-quadruplex DNA; 10 µM): 5.0 ºC
KRAS ∆Tm (KRAS21R G-quadruplex DNA; 5 µM): 1.0 ºC
KRAS ∆Tm (KRAS21R G-quadruplex DNA; 10 µM): 7.7 ºC

O=C(Nc1ccc(Nc2ccnc3ccccc23)cc1)c1cccc(Nc2ccnc3ccccc23)c1 [Compound 2a]
Luciferase Expression (Fold ± SD) ([4]; 0.5 µM): 1.02 ± 0.04 fold
Luciferase Expression (Fold ± SD) ([4]; 1 µM): 1.05 ± 0.12 fold
Luciferase Expression (Fold ± SD) ([4]; 5 µM): 19.94 ± 4.26 fold
Luciferase Expression (Fold ± SD) ([4]; 10 µM): 4.66 ± 1.63 fold
Luciferase Expression (Fold ± SD) ([4]; 25 µM): 1.59 ± 0.59 fold
percentage of sub-G1 peak (U937 cells; 48 h): 62%
IC50 [1]: 1000 ± 200 nM
IC50 [2]: 500 ± 90 nM
IC50 [3]: 140 ± 40 nM
F21T ∆Tm (F21T G-quadruplex DNA; 5 µM): 0 ºC
F21T ∆Tm (F21T G-quadruplex DNA; 10 µM): 5.1 ºC
KRAS ∆Tm (KRAS21R G-quadruplex DNA; 5 µM): 0 ºC
KRAS ∆Tm (KRAS21R G-quadruplex DNA; 10 µM): 6.4 ºC
